The values below come from patent US20140037798A1, “LIQUID NUTRITIONAL PRODUCTS COMPRISING METAL AMINO ACID CHELATES” (ABBOTT LABORATORIES, priority 2011, published 2014).

A short description of series [1]: Methionine sulfoxide concentration in nutritional emulsion, marker of reactive oxygen species generation. In kind it is physicochemical. The conditions noted are these: copper ingredient 35 μM, retort sterilized.
A short description of series [2]: Vitamin B12 recovery in retort sterilized chocolate flavored nutritional emulsion (validated HPLC). The conditions noted are these: copper ingredient 35 μM.
Protocol: Once prepared, the emulsions are analyzed for vitamin B12 recovery using a fully validated HPLC method to determine the amount of vitamin B12 remaining (i.e., not lost to oxidative destruction) in the nutritional emulsion.
For series [3] the following is noted: cocoa powder 0.80% (w/w), pH 6.8 HEPES, cocoa powder:iron 40:1, 99° C. thirty minutes, 0.45 μm filtrate.
Protocol: The visible absorbance of liquids including a mixture of cocoa powder and an iron-containing component is measured to determine the ability of various ferric salts, including ferric amino acid chelates, to decrease reactivity between the iron and the cocoa powder.
Various samples are prepared as described herein using various iron-containing components. All mixtures contain cocoa powder at 0.80% (w/w) in pH 6.8 buffer (0.10M HEPES). The control liquid is prepared without any iron-containing component. In the remaining samples, the iron components are added so that the weight ratio of cocoa powder:iron is 40:1 (w/w).

With `O.O.O.O.O.O=S(=O)([O-])[O-].[Cu+2]` [Control (CuSO4), copper sulfate pentahydrate, reference compound], in series [1], the “Methionine sulfoxide, as mole % of total methionine” value (from here on “Methionine sulfoxide, as mole %”) worked out at 18.8%. Also, the “Vitamin B12” value in series [2] stood at 38.5 µg/kg.

For `NCC(=O)[O-].NCC(=O)[O-].[Cu+2]` [Copper bis-glycinate chelate, copper bis-glycinate chelate], the “Methionine sulfoxide, as mole %” value in series [1] was determined as 18.1%. Moreover, the “Vitamin B12” value in series [2] amounted to 41.3 µg/kg.

With `O=P([O-])([O-])[O-].[Fe+3]` [Ferric orthophosphate, reference compound], in series [3], the “Absorbance, Filtrate v. Blank, 535 nm” value was 579 mAU; the “Absorbance, Filtrate v. Blank, 600 nm” value amounted to 237 mAU; the “Absorbance, Filtrate v. Blank, 700 nm” value stood at 65 mAU.

As to `NCC(=O)[O-].NCC(=O)[O-].[Fe+2]` [Ferrous bis-glycinate], in series [3], the “Absorbance, Filtrate v. Blank, 535 nm” value is 1200 mAU; the “Absorbance, Filtrate v. Blank, 600 nm” value is reported as 1040 mAU; the “Absorbance, Filtrate v. Blank, 700 nm” value is 567 mAU.

With Ferric bis-glycinate, in series [3], the “Absorbance, Filtrate v. Blank, 535 nm” value is recorded as 610 mAU; the “Absorbance, Filtrate v. Blank, 600 nm” value was found to be 319 mAU; the “Absorbance, Filtrate v. Blank, 700 nm” value is given as 101 mAU.

Ferrous gluconate: in series [3], the “Absorbance, Filtrate v. Blank, 535 nm” value was 1230 mAU; the “Absorbance, Filtrate v. Blank, 600 nm” value is 1100 mAU; the “Absorbance, Filtrate v. Blank, 700 nm” value came out at 607 mAU.

Consider Ferrous sulfate [reference compound], for which, in series [3], the “Absorbance, Filtrate v. Blank, 535 nm” value stood at 1240 mAU; the “Absorbance, Filtrate v. Blank, 600 nm” value is listed as 1150 mAU; the “Absorbance, Filtrate v. Blank, 700 nm” value turned out to be 688 mAU.

In the case of copper gluconate, the “Methionine sulfoxide, as mole %” value in series [1] is given as 17.9%. In series [2], the “Vitamin B12” value was found to be 46.4 µg/kg.

Consider copper lysine chelate, for which, in series [1], the “Methionine sulfoxide, as mole %” value turned out to be 17.4%. In series [2], the “Vitamin B12” value came out at 47.0 µg/kg.
